Source: patent publication US7592345B2, “Piperazine and [1,4]diazepan derivatives as NK antagonists” (Hoffmann-La Roche Inc., priority 2007, dated 2009)

molecular target: T1, recombinant human NK3 receptor (Homo sapiens, UniProt P29371); assay: [3H]SR142801 competition binding assay; conditions: [3H]SR142801, membranes from HEK293 cells transiently expressing recombinant human NK3 receptor; read-out: hNK3 Ki
T1 construct: expressed in transfected cells; host or cells: HEK293 cells (transient expression), membranes
T1 sequence (P29371 1-465): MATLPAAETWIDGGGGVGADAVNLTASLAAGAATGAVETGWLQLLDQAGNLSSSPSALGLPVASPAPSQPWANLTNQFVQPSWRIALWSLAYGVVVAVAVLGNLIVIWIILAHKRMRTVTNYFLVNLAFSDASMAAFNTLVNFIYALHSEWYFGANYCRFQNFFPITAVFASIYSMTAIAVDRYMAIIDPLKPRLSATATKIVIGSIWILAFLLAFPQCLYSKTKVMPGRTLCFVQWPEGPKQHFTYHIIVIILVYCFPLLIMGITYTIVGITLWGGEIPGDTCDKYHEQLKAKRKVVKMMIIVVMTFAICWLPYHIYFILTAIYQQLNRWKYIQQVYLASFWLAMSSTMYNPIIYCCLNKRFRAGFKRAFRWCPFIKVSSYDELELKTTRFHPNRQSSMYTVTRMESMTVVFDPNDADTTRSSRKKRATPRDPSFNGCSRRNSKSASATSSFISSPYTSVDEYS
Description: [^3H]SR142801 Competition Binding Assay
hNK3 receptor binding experiment were performed using [^3H]SR142801 (Catalog No. TRK1035, specific activity: 74.0 Ci/mmol, Amersham, GE Healthcare UK limited, Buckinghamshire, UK) and membrane isolated from HEK293 cells transiently expressing recombinant human NK3 receptor. After thawing, the membrane homogenates were centrifuged at 48,000×g for 10 min at 4° C., the pellets were resuspended in the 50 mM Tris-HCl, 4 mM MnCl2, 1 μM phosphoramidon, 0.1% BSA binding buffer at pH 7.4 to a final assay concentration of 5 μg protein/well. For inhibition experiments, membranes were incubated with [^3H]SR142801 at a concentration equal to KD value of radioligand and 10 concentrations of the inhibitory compound (0.0003-10 μM) (in a total reaction volume of 500 μl) for 75 min at room temperature (RT). At the end of the incubation, membranes were filtered onto unitfilter (96-well white microplate with bonded GF/C filter preincubated 1 h in 0.3% PEI+0.3% BSA, Packard BioScience, Meriden, Conn.) with a Filtermate 196 harvester (Packard BioScience) and washed 4 times with ice-cold 50 mM Tris-HCl, pH 7.4 buffer. Nonspecific binding was measured in the presence of 10 μM SB222200 for both radioligands. The radioactivity on the filter was counted (5 min) on a Packard Top-count microplate scintillation counter with quenching correction after addition of 45 μl of microscint 40 (Canberra Packard S. A., Zürich, Switzerland) and shaking for 1 h. Inhibition curves were fitted according to the Hill equation: y=100/(1+(x/IC50)^nH), where nH=slope factor using Excel-fit 4 software (Microsoft). IC50 values were derived from the inhibition curve and the affinity constant (Ki) values were calculated using the Cheng-Prussoff equation Ki=IC50/(1+[L]/KD) where [L] is the concentration of radioligand and KD is its dissociation constant at the receptor, derived from the saturation isotherm. All experiments were performed in duplicate and the mean±standard error (SEM) of the individual Ki values was calculated.

Compared with `CC(CCN1CCCN(S(C)(=O)=O)CC1)(C(=O)NCc1ccc(Cl)c(Cl)c1)c1ccc(Cl)c(Cl)c1` (centres unmarked) [Example 114, N-(3,4-Dichloro-benzyl)-2-(3,4-dichloro-phenyl)-4-(4-methanesulfonyl-[1,4]diazepan-1-yl)-2-methyl-butyramide], `CC(CCN1CCN(S(C)(=O)=O)CC1)(C(=O)NCc1ccc(Cl)c(Cl)c1)c1ccc(Cl)c(Cl)c1` (centres unmarked) [Example 21, N-(3,4-Dichloro-benzyl)-2-(3,4-dichloro-phenyl)-4-(4-methanesulfonyl-piperazin-1-yl)-2-methyl-butyramide] is 1.6-fold higher in Ki: 39.9 nM for the first, 65.5 nM for the second. The first binds more tightly here.

First: CC(CCN1CCCN(S(C)(=O)=O)CC1)(C(=O)NCc1ccc(C(F)(F)F)nc1)c1ccc(Cl)c(Cl)c1 (centres unmarked) [Example 126, 2-(3,4-Dichloro-phenyl)-4-(4-methanesulfonyl-[1,4]diazepan-1-yl)-2-methyl-N-(6-trifluoromethyl-pyridin-3-ylmethyl)-butyramide]
Second: CC(CCN1CCCN(S(C)(=O)=O)CC1)(C(=O)NCc1ccc(C(F)(F)F)cc1)c1ccc(Cl)c(Cl)c1 (centres unmarked) [Example 117, 2-(3,4-Dichloro-phenyl)-4-(4-methanesulfonyl-[1,4]diazepan-1-yl)-2-methyl-N-(4-trifluoromethyl-benzyl)-butyramide]
The Ki of the first is 19-fold higher: 949 nM for the first, 49.6 nM for the second. The second binds more tightly here.

Going from `C[C@H]1CN(CCC(C)(C(=O)NCc2cc(F)ccc2C(F)(F)F)c2ccc(Cl)c(Cl)c2)CCN1S(C)(=O)=O` (stereo partly drawn) [Example 74, 2-(3,4-Dichloro-phenyl)-N-(5-fluoro-2-trifluoromethyl-benzyl)-4-((S)-4-methanesulfonyl-3-methyl-piperazin-1-yl)-2-methyl-butyramide] to `C[C@@H]1CN(CCC(C)(C(=O)NCc2ccc(Cl)c(C(F)(F)F)c2)c2ccc(Cl)c(Cl)c2)CCN1S(C)(=O)=O` (stereo partly drawn) [Example 54, N-(4-Chloro-3-trifluoromethyl-benzyl)-2-(3,4-dichloro-phenyl)-4-((R)-4-methanesulfonyl-3-methyl-piperazin-1-yl)-2-methyl-butyramide], the Ki falls from 496 nM to 17.5 nM (28-fold). The second binds more tightly here.

First: CC(CCN1CCCN(S(C)(=O)=O)CC1)(C(=O)NCc1cc(C(F)(F)F)cc(C(F)(F)F)c1)c1ccc(Cl)c(Cl)c1 (centres unmarked) [Example 107, N-(3,5-Bis-trifluoromethyl-benzyl)-2-(3,4-dichloro-phenyl)-4-(4-methanesulfonyl-[1,4]diazepan-1-yl)-2-methyl-butyramide]
Second: C[C@@H]1CN(CCC(C)(C(=O)NCc2cc(C(F)(F)F)cc(C(F)(F)F)c2)c2ccc(Cl)c(Cl)c2)CCN1S(C)(=O)=O (stereo partly drawn) [Example 34, N-(3,5-Bis-trifluoromethyl-benzyl)-2-(3,4-dichloro-phenyl)-4-((R)-4-methanesulfonyl-3-methyl-piperazin-1-yl)-2-methyl-butyramide]
The Ki of the first is 4.3-fold higher: 209 nM for the first, 48.1 nM for the second.

`COc1ccc(CN(C)C(=O)C(C)(CCN2CCN(S(C)(=O)=O)[C@@H](C)C2)c2ccc(Cl)c(Cl)c2)cc1F` (stereo partly drawn) [Example 62, 2-(3,4-Dichloro-phenyl)-N-(3-fluoro-4-methoxy-benzyl)-4-((S)-4-methanesulfonyl-3-methyl-piperazin-1-yl)-2,N-dimethyl-butyramide] and `COc1cc(CN(C)C(=O)C(C)(CCN2CCN(S(C)(=O)=O)[C@@H](C)C2)c2ccc(Cl)c(Cl)c2)ccc1OC(F)F` (stereo partly drawn) [Example 66, 2-(3,4-Dichloro-phenyl)-N-(4-difluoromethoxy-3-methoxy-benzyl)-4-((S)-4-methanesulfonyl-3-methyl-piperazin-1-yl)-2,N-dimethyl-butyramide] are within 1.5-fold of each other in Ki: 216 nM for the first, 277 nM for the second.

Going from `CC(CCN1CCCN(S(C)(=O)=O)CC1)(C(=O)NCc1cccc(OC(F)(F)F)c1)c1ccc(Cl)c(Cl)c1` (centres unmarked) [Example 102, 2-(3,4-Dichloro-phenyl)-4-(4-methanesulfonyl-[1,4]diazepan-1-yl)-2-methyl-N-(3-trifluoromethoxy-benzyl)-butyramide] to `CC(CCN1CCN(S(C)(=O)=O)CC1)(C(=O)NCc1cccc(OC(F)(F)F)c1)c1ccc(Cl)c(Cl)c1` (centres unmarked) [Example 9, 2-(3,4-Dichloro-phenyl)-4-(4-methanesulfonyl-piperazin-1-yl)-2-methyl-N-(3-trifluoromethoxy-benzyl)-butyramide], the Ki rises from 123 nM to 190 nM (1.5-fold). The first binds more tightly here.

`CC(CCN1CCN2C(CCS2(=O)=O)C1)(C(=O)N[C@@H](CO)c1ccc(F)cc1)c1ccc(Cl)c(Cl)c1` (stereo partly drawn) [Example 137, 2-(3,4-Dichloro-phenyl)-4-(1,1-dioxo-hexahydro-1λ^6-thia-5,7a-diaza-inden-5-yl)-N-[(R)-1-(4-fluoro-phenyl)-2-hydroxy-ethyl]-2-methyl-butyramide] and `CC(CCN1CCN(S(C)(=O)=O)CC1)(C(=O)N[C@@H](CO)c1ccccc1)c1ccc(Cl)c(Cl)c1` (single isomer, unassigned) [Example 128, (R or S)-2-(3,4-Dichloro-phenyl)-N-((R)-2-hydroxy-1-phenyl-ethyl)-4-(4-methanesulfonyl-piperazin-1-yl)-2-methyl-butyramide] are within 1.5-fold of each other in Ki: 30.5 nM for the first, 40.6 nM for the second.

`C[C@H]1CN(CCC(C)(C(=O)NCc2ccc(C(F)(F)F)cc2)c2ccc(Cl)c(Cl)c2)CCN1S(C)(=O)=O` (stereo partly drawn) [Example 75, 2-(3,4-Dichloro-phenyl)-4-((S)-4-methanesulfonyl-3-methyl-piperazin-1-yl)-2-methyl-N-(4-trifluoromethyl-benzyl)-butyramide] and `Cc1ccc(CN(C)C(=O)C(C)(CCN2CCN(S(C)(=O)=O)[C@@H](C)C2)c2ccc(Cl)c(Cl)c2)cc1` (stereo partly drawn) [Example 67, 2-(3,4-Dichloro-phenyl)-4-((S)-4-methanesulfonyl-3-methyl-piperazin-1-yl)-2,N-dimethyl-N-(4-methyl-benzyl)-butyramide] are within 1.5-fold of each other in Ki: 68.1 nM for the first, 99.2 nM for the second.

Compared with `CC(CCN1CCN(S(C)(=O)=O)CC1)(C(=O)NCc1ccc(C(F)(F)F)c(F)c1)c1ccc(Cl)c(Cl)c1` (centres unmarked) [Example 20, 2-(3,4-Dichloro-phenyl)-N-(3-fluoro-4-trifluoromethyl-benzyl)-4-(4-methanesulfonyl-piperazin-1-yl)-2-methyl-butyramide], `CC(CCN1CCCN(S(C)(=O)=O)CC1)(C(=O)NCc1ccc(OC(F)(F)F)cc1)c1ccc(Cl)c(Cl)c1` (centres unmarked) [Example 99, 2-(3,4-Dichloro-phenyl)-4-(4-methanesulfonyl-[1,4]diazepan-1-yl)-2-methyl-N-(4-trifluoromethoxy-benzyl)-butyramide] is 1.9-fold higher in Ki: 67.1 nM for the first, 128 nM for the second. The first binds more tightly here.

Compared with `CN(Cc1cccc(F)c1)C(=O)C(CCN1CCN(S(C)(=O)=O)CC1)c1ccc(Cl)c(Cl)c1` (centres unmarked) [Example 7, 2-(3,4-Dichloro-phenyl)-N-(3-fluoro-benzyl)-4-(4-methanesulfonyl-piperazin-1-yl)-N-methyl-butyramide], `CN(Cc1cccc(F)c1)C(=O)C(C)(CCN1CCCN(S(C)(=O)=O)CC1)c1ccc(Cl)c(Cl)c1` (centres unmarked) [Example 100, 2-(3,4-Dichloro-phenyl)-N-(3-fluoro-benzyl)-4-(4-methanesulfonyl-[1,4]diazepan-1-yl)-2,N-dimethyl-butyramide] is 4-fold lower in Ki: 388 nM for the first, 96.5 nM for the second.

First: CN(Cc1ccc(C(F)(F)F)cc1)C(=O)C(C)(CCN1CCCN(S(C)(=O)=O)CC1)c1ccc(Cl)c(Cl)c1 (centres unmarked) [Example 96, 2-(3,4-Dichloro-phenyl)-4-(4-methanesulfonyl-[1,4]diazepan-1-yl)-2,N-dimethyl-N-(4-trifluoromethyl-benzyl)-butyramide]
Second: C[C@@H]1CN(CCC(C)(C(=O)N(C)Cc2cccc(F)c2)c2ccc(Cl)c(Cl)c2)CCN1S(C)(=O)=O (stereo partly drawn) [Example 60, 2-(3,4-Dichloro-phenyl)-N-(3-fluoro-benzyl)-4-((R)-4-methanesulfonyl-3-methyl-piperazin-1-yl)-2,N-dimethyl-butyramide]
The Ki of the first is 5.3-fold lower: 24.5 nM for the first, 130 nM for the second.

`C[C@H]1CN(CCC(C)(C(=O)N(C)Cc2ccc(Cl)c(Cl)c2)c2ccc(Cl)c(Cl)c2)CCN1S(C)(=O)=O` (stereo partly drawn) [Example 71, N-(3,4-Dichloro-benzyl)-2-(3,4-dichloro-phenyl)-4-((S)-4-methanesulfonyl-3-methyl-piperazin-1-yl)-2,N-dimethyl-butyramide] gave a Ki of 12.5 nM.
